Reference: patent publication US9120749B2, “Quinoline derivatives and MELK inhibitors containing the same” (ONCOTHERAPY SCIENCE, INC., priority 2010, dated 2015)
Where a name gives a salt, the structure may show the parent alone. Read-outs that look alike come from different tables or passages of the source.

Experiments:
T47D cells = assay: Cell-based assay: anti-proliferative activity, Cell Counting Kit-8, 72 hours (T47D); conditions: MELK-expressing, Cell Counting Kit-8 at 72 hours
Procedure, shortened: (§1)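 T47D, A549 and BT-549 cells, with MELK-negative HT-1197 as control (MELK status checked by western blot), seeded at 2,000–3,000 cells/well. Growth measured by CCK-8 72 hours after inhibitor exposure; IC50 values calculated.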

BT-549 cells = assay: Cell-based assay: anti-proliferative activity, Cell Counting Kit-8, 72 hours (BT-549); conditions: BT549 cells, MELK-expressing, Cell Counting Kit-8 at 72 hours
Procedure: To evaluate the expression status of MELK in several cell lines, western blot analysis was performed using crude cell lysate collected from those cells. Anti-MELK antibody (clone 31, BD Biosciences) was used to visualize the expression.
Active candidate inhibitors against MELK were evaluated for their target-specific cytotoxicity using T47D, A549, BT-549, and HT-1197 cells was used for negative control. 100 micro-L of cell suspension was seeded onto 96-well microtiter plate (ViewPlate-96FTC, PerkinElmer). The initial cell concentration of T47D, A549, BT-549, and HT-1197 were 3,000 cells/well, 2,000 cells/well and 2,500 cells/well, respectively. Cellular growth was determined using Cell Counting Kit-8 (DOJINDO) at 72 hours after the exposure of the candidate inhibitors. […] Accurate IC50 values were calculated as described previously.

A549 cells = assay: Cell-based assay: anti-proliferative activity, Cell Counting Kit-8, 72 hours (A549); conditions: MELK-expressing, Cell Counting Kit-8 at 72 hours
Procedure, shortened: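 A549 cells seeded in 96-well plates and exposed to candidate inhibitors for 72 hours. Growth measured with Cell Counting Kit-8; IC50 values calculated from the dose response.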

MELK = MELK (Homo sapiens, UniProt Q14680); assay: Kinase assay: MELK activity, phosphorylation of FITC-labeled histone H3 peptide measured by IMAP fluorescence polarization; type: biochemical; conditions: 50 micro-M ATP, FITC-labeled histone H3 peptide substrate, IMAP fluorescence polarization, read-out: IC50 (μM) (kinase assay)
Procedure, shortened: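 A FITC-labelled histone H3 peptide served as substrate, with compounds serially diluted to 1% DMSO final. Reactions were stopped with three volumes of IMAP progressive binding solution. After 0.5 h at room temperature, fluorescence polarization was read.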

HT-1197 cells = assay: Cell-based assay: anti-proliferative activity, Cell Counting Kit-8, 72 hours (HT-1197, negative control without MELK expression); conditions: HT1197 cells, no MELK expression (negative control), Cell Counting Kit-8 at 72 hours
Procedure, shortened: as §1

MELK, sequence (Q14680 whole entry, looked up): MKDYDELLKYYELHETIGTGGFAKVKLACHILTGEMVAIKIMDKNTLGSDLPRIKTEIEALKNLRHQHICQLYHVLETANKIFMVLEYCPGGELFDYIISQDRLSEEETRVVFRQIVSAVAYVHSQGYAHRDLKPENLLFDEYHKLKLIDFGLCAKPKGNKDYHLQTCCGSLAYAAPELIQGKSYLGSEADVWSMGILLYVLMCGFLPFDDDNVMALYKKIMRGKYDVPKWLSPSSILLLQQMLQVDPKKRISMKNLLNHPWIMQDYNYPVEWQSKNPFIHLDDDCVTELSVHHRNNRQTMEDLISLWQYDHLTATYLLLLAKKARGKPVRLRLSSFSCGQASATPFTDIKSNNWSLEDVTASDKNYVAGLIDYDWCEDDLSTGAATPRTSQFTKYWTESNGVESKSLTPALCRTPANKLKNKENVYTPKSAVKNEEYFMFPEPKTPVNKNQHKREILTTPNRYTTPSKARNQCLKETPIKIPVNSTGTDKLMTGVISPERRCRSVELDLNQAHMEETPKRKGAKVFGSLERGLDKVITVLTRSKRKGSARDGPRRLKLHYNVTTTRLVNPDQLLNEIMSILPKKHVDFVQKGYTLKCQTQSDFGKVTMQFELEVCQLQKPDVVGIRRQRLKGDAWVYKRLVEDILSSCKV

| Structure (SMILES) | IC50 (T47D cells; Homo sapiens, T47D, 72 h) | IC50 (BT-549 cells; Homo sapiens, BT-549, 72 h) | IC50 (A549 cells; Homo sapiens, A549, 72 h) | IC50 (MELK) | IC50 (HT-1197 cells; Homo sapiens, HT1197, 72 h) | IC50 (T47D cells; dihydrochloride) | IC50 (BT-549 cells; dihydrochloride) | IC50 (A549 cells; dihydrochloride) | IC50 (MELK; dihydrochloride) | IC50 (HT-1197 cells; dihydrochloride) |
| --- | --- | --- | --- | --- | --- | --- | --- | --- | --- | --- |
| CC(C)C(=O)c1cnc2ccc(-c3ccc(O)c(Cl)c3)cc2c1N1CCC(CN2CCCC2)CC1 [Example 318, 1-{6-(3-Chloro-4-hydroxyphenyl)-4-[4-(pyrrolidin-1-ylmethyl)piperidin-1-yl]quinolin-3-yl}-2-methylpropan-1-one] | 0.92 µM | 1.8 µM | 0.87 µM | 0.02 µM | 1.4 µM |  |  |  |  |  |
| N[C@H]1CC[C@H](Nc2c(C(=O)C3CC3)cnc3ccc(-c4cc(Cl)c(O)cc4Cl)cc23)CC1 [Example 160, {4-[trans-4-Aminocyclohexylamino]-6-(2,5-dichloro-4-hydroxyphenyl)quinolin-3-yl}(cyclopropyl)methanone] | 0.28 µM | 0.39 µM | 0.68 µM | 0.072 µM | 1.2 µM |  |  |  |  |  |
| COc1cc(-c2ccc3ncc(C(=O)C4CC4)c(NCC4CCN(C)CC4)c3c2)cc(Cl)c1O [Example 201, {6-(3-Chloro-4-hydroxy-5-methoxyphenyl)-4-[(1-methylpiperidin-4-yl)methylamino]quinolin-3-yl}(cyclopropyl)methanone] | 0.76 µM | 1.8 µM | 0.73 µM | 0.0034 µM | 7.4 µM |  |  |  |  |  |
| CN(C)Cc1ccc(Nc2c(C(=O)C3CC3)cnc3ccc(-c4cc(Cl)c(O)c(Cl)c4)cc23)cc1 [Example 345, Cyclopropyl[6-(3,5-dichloro-4-hydroxyphenyl)-4-{4-[(dimethylamino)methyl]phenylamino}quinolin-3-yl]methanone] | 0.054 µM | 0.1 µM | 0.051 µM | 0.0032 µM | 0.67 µM |  |  |  |  |  |
| O=C(c1cnc2ccc(-c3ccc(O)c(Cl)c3)cc2c1N[C@H]1CC[C@H](N2CCCC2)CC1)C1CC1 [Example 342, {6-(3-Chloro-4-hydroxyphenyl)-4-[trans-4-(pyrrolidin-1-yl)cyclohexylamino]quinolin-3-yl}(cyclopropyl)methanone] | 0.25 µM | 0.68 µM | 0.27 µM | 0.0046 µM | 1.8 µM |  |  |  |  |  |
| CN(C)[C@H]1CC[C@H](CNc2c(C(=O)C3CC3)cnc3ccc(-c4cc(Cl)c(O)c(Cl)c4)cc23)CC1 [Example 325, Cyclopropyl[6-(3,5-dichloro-4-hydroxyphenyl)-4-{[trans-4-(dimethylamino)cyclohexyl]methylamino}quinolin-3-yl]methanone] | 0.78 µM | 1.9 µM | 0.62 µM | 0.011 µM | 10 µM |  |  |  |  |  |
| COc1cc(-c2cc3c(N[C@H]4CC[C@H](N)CC4)c(C(=O)C4CC4)cnc3cc2F)cc(Cl)c1O [Example 284, {4-[trans-4-aminocyclohexylamino]-6-(3-chloro-4-hydroxy-5-methoxyphenyl)-7-fluoroquinolin-3-yl}(cyclopropyl)methanone] | 0.62 µM | 1.7 µM | 0.49 µM | 0.013 µM | 2.2 µM |  |  |  |  |  |
| CN(C)[C@H]1CC[C@H](Nc2c(C(=O)C3CC3)cnc3cc(F)c(-c4cc(F)c(O)c(F)c4)cc23)CC1 [Example 294, Cyclopropyl{6-(3,5-difluoro-4-hydroxyphenyl)-4-[trans-4-(dimethylamino)cyclohexylamino]-7-fluoroquinolin-3-yl}methanone] | 0.68 µM | 0.55 µM | 0.43 µM | 0.042 µM | 1.5 µM |  |  |  |  |  |
| CCN(CC)C1CCC(Nc2c(C(C)=O)cnc3ccc(-c4cc(Cl)c(O)c(OC)c4)cc23)CC1 (stereo not drawn) [Example 303, 1-{6-(3-Chloro-4-hydroxy-5-methoxyphenyl)-4-[4-(diethylamino)cyclohexylamino]quinolin-3-yl}ethanone] | 0.39 µM | 1.7 µM | 0.35 µM | 0.0061 µM | 7.4 µM |  |  |  |  |  |
| CCN(CC)[C@H]1CC[C@H](Nc2c(C(=O)C3CC3)cnc3ccc(-c4cc(Cl)c(O)c(OC)c4)cc23)CC1 [Example 314, {6-(3-Chloro-4-hydroxy-5-methoxyphenyl)-4-[trans-4-(diethylamino)cyclohexylamino]quinolin-3-yl}(cyclopropyl)methanone] | 0.16 µM | 0.73 µM | 0.22 µM | 0.0031 µM | 4.3 µM |  |  |  |  |  |
| CC(C)C(=O)c1cnc2ccc(-c3cc(Cl)c(O)c(Cl)c3)cc2c1N[C@H]1CC[C@H](N)CC1 [Example 225(b), 1-{4-[trans-4-Aminocyclohexylamino]-6-(3,5-dichloro-4-hydroxyphenyl)quinolin-3-yl}-2-methylpropan-1-one dihydrochloride] |  |  |  |  |  | 0.048 µM | 0.17 µM | 0.22 µM | 0.0028 µM | 1.6 µM |
| COc1cc(-c2ccc3ncc(C(=O)C4CC4)c(N4CCC(CN5CCCC5)CC4)c3c2)cc(Cl)c1O [Example 280, {6-(3-Chloro-4-hydroxy-5-methoxyphenyl)-4-[4-(pyrrolidin-1-ylmethyl)piperidin-1-yl]quinolin-3-yl}(cyclopropyl)methanone] | 0.25 µM | 0.71 µM | 0.2 µM | 0.0017 µM | 2.9 µM |  |  |  |  |  |
| CC(C)C(=O)c1cnc2ccc(-c3cc(F)c(O)c(F)c3)cc2c1N[C@H]1CC[C@H](N)CC1 [Example 214, 1-{4-[trans-4-Aminocyclohexylamino]-6-(3,5-difluoro-4-hydroxyphenyl)quinolin-3-yl}-2-methylpropan-1-one] | 0.048 µM | 0.084 µM | 0.65 µM | 0.043 µM | 1.4 µM |  |  |  |  |  |
| CN(C)CC1CCN(c2c(C(=O)C3CC3)cnc3ccc(-c4ccc(O)c(Cl)c4)cc23)CC1 [Example 279, [6-(3-Chloro-4-hydroxyphenyl)-4-{4-[(dimethylamino)methyl]piperidin-1-yl}quinolin-3-yl](cyclopropyl)methanone] | 0.21 µM | 0.86 µM | 0.3 µM | 0.0046 µM | 6.7 µM |  |  |  |  |  |
| N#Cc1ccc(-c2ccc3ncc(C(=O)C4CC4)c(N[C@H]4CC[C@H](N)CC4)c3c2)s1 [Example 119, 5-{4-[trans-4-Aminocyclohexylamino]-3-(cyclopropanecarbonyl)quinolin-6-yl}thiophene-2-carbonitrile] | 8.8 µM | 14 µM | 5.4 µM | 0.046 µM | 8 µM |  |  |  |  |  |
| COc1cc(-c2ccc3ncc(C(=O)CC(C)C)c(N[C@H]4CC[C@H](N)CC4)c3c2)cc(Cl)c1O [Example 262, dihydrochloride] | 0.13 µM | 0.91 µM | 0.36 µM | 0.005 µM | 2.2 µM |  |  |  |  |  |
| COc1cc(-c2ccc3ncc(C(=O)C4CC4)c(NC[C@H]4CC[C@H](N(C)C)CC4)c3c2)cc(Cl)c1O [Example 315] | 0.64 µM | 1.4 µM | 0.3 µM | 0.0043 µM | 3 µM |  |  |  |  |  |
| COc1cc(-c2ccc3ncc(C(=O)C4CC4)c(N[C@H]4CC[C@H](N5CCCC5)CC4)c3c2)cc(Cl)c1O [Example 343, {6-(3-Chloro-4-hydroxy-5-methoxyphenyl)-4-[trans-4-(pyrrolidin-1-yl)cyclohexylamino]quinolin-3-yl}(cyclopropyl)methanone] | 0.33 µM | 0.68 µM | 0.2 µM | 0.0021 µM | 3.4 µM |  |  |  |  |  |
| O=C(c1cnc2ccc(-c3ccc(O)c(OC(F)(F)F)c3)cc2c1N1CCC(CN2CCCC2)CC1)C1CC1 [Example 313, Cyclopropyl{6-[4-hydroxy-3-(trifluoromethoxy)phenyl]-4-[4-(pyrrolidin-1-ylmethyl]piperidin-1-yl}quinolin-3-yl)methanone] | 0.67 µM | 1.3 µM | 0.8 µM | 0.012 µM | 3.2 µM |  |  |  |  |  |
| CC(C)C(=O)c1cnc2ccc(-c3ccc(O)c(Cl)c3)cc2c1N[C@H]1CC[C@H](N)CC1 [Example 219, 1-{4-[trans-4-Aminocyclohexylamino]-6-(3-chloro-4-hydroxyphenyl)quinolin-3-yl}-2-methylpropan-1-one] | 0.11 µM | 0.25 µM | 0.32 µM | 0.023 µM | 1.2 µM |  |  |  |  |  |
| N[C@H]1CC[C@H](Nc2c(C(=O)C3CC3)cnc3ccc(-c4cc(Cl)c(O)c(Cl)c4)cc23)CC1 [Example 157(b), {4-[trans-4-Aminocyclohexylamino]-6-(3,5-dichloro-4-hydroxyphenyl)quinolin-3-yl}(cyclopropyl)methanone dihydrochloride] |  |  |  |  |  | 0.096 µM | 0.31 µM | 0.3 µM | 0.003 µM | 4.7 µM |
